# In PubChem BioAssay AID256 (DTP/NCI, 2004):
# “And” between values parts separate entries of the source, which are not always exact repeats. Equal values may be shown once. Inconclusive results and toxic doses are left out.
# Test system: CD2F1 mice, L1210 leukemia ip, survival T/C
# Test: NCI In Vivo Anticancer Drug Screen. Data for tumor model L1210 Leukemia (intraperitoneal) in CD2F1 (CDF1) mice
# Conditions: higher = longer survival
# How it was run: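 Implant tumor; dose compound or vehicle; measure endpoint in both groups; report treated divided by control.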
# [1] = endpoint: mean survival time, dose: 100.0 mg/kg/injection, schedule: Q01DX001 (ip), vehicle: saline
# [2] = endpoint: mean survival time, dose: 200.0 mg/kg/injection, schedule: Q01DX001 (ip), vehicle: saline
# [3] = endpoint: mean survival time, dose: 100.0 mg/kg/injection, schedule: Q04DX003 (ip), vehicle: saline with Tween-80
# [4] = endpoint: mean survival time, dose: 200.0 mg/kg/injection, schedule: Q04DX003 (ip), vehicle: saline with Tween-80
# [5] = endpoint: mean survival time, dose: 400.0 mg/kg/injection, schedule: Q04DX003 (ip), vehicle: saline with Tween-80
# [6] = endpoint: mean survival time, dose: 25.0 mg/kg/injection, schedule: Q04DX002 (ip), vehicle: saline
# [7] = endpoint: mean survival time, dose: 400.0 mg/kg/injection, schedule: Q01DX001 (ip), vehicle: saline
smiles,measurement,setting,value
C=CC[n+]1ccc2ccccc2c1,T/C,"endpoint: mean survival time, dose: 100.0 mg/kg/injection, schedule: Q04DX003 (ip), vehicle: saline sonified",97 % of control
CCN(CC)CCSCCSCCN(CC)CC,T/C,[1],100 % of control
same,T/C,[2],100 % of control
[O-][n+]1c2cccc(O)c2[n+]([O-])c2cccc(O)c21,T/C,[3],91 % of control
same,T/C,[4],100 % of control
same,T/C,[5],103 % of control
CC(C)(C)[Si](C)(C)N1CCCOP1(=O)N(CCCl)CCCl (configuration not stated),T/C,"endpoint: mean survival time, dose: 15.6 mg/kg/injection, schedule: Q01DX001 (ip), vehicle: distilled water + Tween-80",98 % of control
same,T/C,"endpoint: mean survival time, dose: 31.3 mg/kg/injection, schedule: Q01DX001 (ip), vehicle: distilled water + Tween-80",102 % of control
same,T/C,"endpoint: mean survival time, dose: 62.5 mg/kg/injection, schedule: Q01DX001 (ip), vehicle: distilled water + Tween-80",96 % of control
same,T/C,"endpoint: mean survival time, dose: 125.0 mg/kg/injection, schedule: Q01DX001 (ip), vehicle: distilled water + Tween-80",108 % of control
same,T/C,"endpoint: mean survival time, dose: 250.0 mg/kg/injection, schedule: Q01DX001 (ip), vehicle: distilled water + Tween-80",101 % of control
same,T/C,"endpoint: mean survival time, dose: 500.0 mg/kg/injection, schedule: Q01DX001 (ip), vehicle: distilled water + Tween-80",104 % of control
NC(C(=O)O)C(O)c1ccc2c(c1)OCO2 (configuration not stated),T/C,[3],98 % of control
same,T/C,[4],92 % of control
same,T/C,[5],95 % of control
O=C1C=C(O)c2cc(Br)ccc2C1=O.[Ag],T/C,[6],106 % of control
same,T/C,"endpoint: mean survival time, dose: 50.0 mg/kg/injection, schedule: Q04DX002 (ip), vehicle: saline",113 % of control
same,T/C,"endpoint: mean survival time, dose: 100.0 mg/kg/injection, schedule: Q04DX002 (ip), vehicle: saline",97 % of control
NNc1ncn[nH]1,T/C,"endpoint: mean survival time, dose: 25.0 mg/kg/injection, schedule: Q01DX001 (ip), vehicle: saline with Tween-80",98 % of control
same,T/C,"endpoint: mean survival time, dose: 50.0 mg/kg/injection, schedule: Q01DX001 (ip), vehicle: saline with Tween-80",101 % of control
CC(C#N)(Nc1ccccc1)c1ccccc1 (configuration not stated),T/C,"endpoint: mean survival time, dose: 100.0 mg/kg/injection, schedule: Q04DX003 (ip), vehicle: saline",102 % of control
same,T/C,"endpoint: mean survival time, dose: 200.0 mg/kg/injection, schedule: Q04DX003 (ip), vehicle: saline",103 % of control
same,T/C,"endpoint: mean survival time, dose: 400.0 mg/kg/injection, schedule: Q04DX003 (ip), vehicle: saline",96 % of control
[C-]#[O+].[C-]#[O+].[C-]#[O+].[C-]#[O+].[CH3][Sn]([CH3])[CH3].[Co],T/C,"endpoint: mean survival time, dose: 0.02 mg/kg/injection, schedule: Q01DX009 (ip), vehicle: saline",100 % of control
same,T/C,"endpoint: mean survival time, dose: 0.04 mg/kg/injection, schedule: Q01DX009 (ip), vehicle: saline",102 % of control
same,T/C,"endpoint: mean survival time, dose: 0.09 mg/kg/injection, schedule: Q01DX009 (ip), vehicle: saline",100 % of control and 105 % of control
same,T/C,"endpoint: mean survival time, dose: 0.39 mg/kg/injection, schedule: Q01DX009 (ip), vehicle: saline",86 % of control
same,T/C,"endpoint: mean survival time, dose: 0.78 mg/kg/injection, schedule: Q01DX009 (ip), vehicle: saline",107 % of control
O=C(OCCO)c1ccccc1,T/C,"endpoint: mean survival time, dose: 100.0 mg/kg/injection, schedule: Q01DX009 (ip), vehicle: saline with Tween-80",98 % of control
same,T/C,[3],95 % of control
same,T/C,"endpoint: mean survival time, dose: 200.0 mg/kg/injection, schedule: Q01DX009 (ip), vehicle: saline with Tween-80",97 % of control
same,T/C,[4],98 % of control
same,T/C,"endpoint: mean survival time, dose: 400.0 mg/kg/injection, schedule: Q01DX009 (ip), vehicle: saline with Tween-80",97 % of control
same,T/C,[5],103 % of control
COc1cc2cccc(OC)c(=O)c2c(O)c1OC,T/C,[1],98 % of control
same,T/C,[2],101 % of control
same,T/C,[7],101 % of control
CCCCOC1CCC2(C)C(=CCC3C2CCC2(C)C(C(C)CCCC(C)C)CCC32)C1 (configuration not stated),T/C,"endpoint: mean survival time, dose: 100.0 mg/kg/injection, schedule: Q01DX009 (sc), vehicle: steriod suspending solution",114 % of control
same,T/C,"endpoint: mean survival time, dose: 100.0 mg/kg/injection, schedule: Q04DX003 (sc), vehicle: steriod suspending solution",91 % of control
same,T/C,"endpoint: mean survival time, dose: 200.0 mg/kg/injection, schedule: Q01DX009 (sc), vehicle: steriod suspending solution",102 % of control
same,T/C,"endpoint: mean survival time, dose: 200.0 mg/kg/injection, schedule: Q04DX003 (sc), vehicle: steriod suspending solution",96 % of control
same,T/C,"endpoint: mean survival time, dose: 400.0 mg/kg/injection, schedule: Q01DX009 (sc), vehicle: steriod suspending solution",103 % of control
same,T/C,"endpoint: mean survival time, dose: 400.0 mg/kg/injection, schedule: Q04DX003 (sc), vehicle: steriod suspending solution",102 % of control
Nc1cc2c(ncn2C2OC(CO)C(O)C2O)c(=O)n1N (configuration not stated),T/C,"endpoint: mean survival time, dose: 12.5 mg/kg/injection, schedule: Q01DX005 (ip), vehicle: distilled water + Tween-80",96 % of control
same,T/C,"endpoint: mean survival time, dose: 25.0 mg/kg/injection, schedule: Q01DX005 (ip), vehicle: distilled water + Tween-80",97 % of control
same,T/C,"endpoint: mean survival time, dose: 50.0 mg/kg/injection, schedule: Q01DX005 (ip), vehicle: distilled water + Tween-80",105 % of control
same,T/C,"endpoint: mean survival time, dose: 100.0 mg/kg/injection, schedule: Q01DX005 (ip), vehicle: distilled water + Tween-80",94 % of control
same,T/C,"endpoint: mean survival time, dose: 200.0 mg/kg/injection, schedule: Q01DX005 (ip), vehicle: distilled water + Tween-80",94 % of control
COC(=O)c1cc(-c2ccc(Cl)cc2)nc2cc(Cl)c(OC)cc12,T/C,[1],92 % of control
same,T/C,[2],87 % of control
CCCNC1=C(C)C(=O)C2=C(C1=O)[C@H](COC(N)=O)[C@]1(OC)[C@@H]3N[C@@H]3CN21,T/C,"endpoint: mean survival time, dose: 10.2 mg/kg/injection, schedule: Q01DX001 (ip), vehicle: saline",108 % of control
same,T/C,"endpoint: mean survival time, dose: 15.5 mg/kg/injection, schedule: Q01DX001 (ip), vehicle: saline",112 % of control
same,T/C,"endpoint: mean survival time, dose: 23.2 mg/kg/injection, schedule: Q01DX001 (ip), vehicle: saline",120 % of control
same,T/C,"endpoint: median survival time, dose: 0.39 mg/kg/injection, schedule: Q01DX009 (ip), vehicle: suspension in saline",93 % of control
same,T/C,"endpoint: median survival time, dose: 0.78 mg/kg/injection, schedule: Q01DX009 (ip), vehicle: saline",112 % of control
same,T/C,"endpoint: median survival time, dose: 0.78 mg/kg/injection, schedule: Q01DX009 (ip), vehicle: suspension in saline",93 % of control
same,T/C,"endpoint: median survival time, dose: 1.56 mg/kg/injection, schedule: Q01DX009 (ip), vehicle: saline",117 % of control
same,T/C,"endpoint: median survival time, dose: 1.56 mg/kg/injection, schedule: Q01DX009 (ip), vehicle: suspension in saline",102 % of control
same,T/C,"endpoint: median survival time, dose: 3.12 mg/kg/injection, schedule: Q01DX009 (ip), vehicle: suspension in saline",102 % of control
same,T/C,"endpoint: median survival time, dose: 6.25 mg/kg/injection, schedule: Q01DX009 (ip), vehicle: saline",166 % of control
same,T/C,"endpoint: median survival time, dose: 6.25 mg/kg/injection, schedule: Q01DX009 (ip), vehicle: suspension in saline",104 % of control
same,T/C,"endpoint: median survival time, dose: 12.5 mg/kg/injection, schedule: Q01DX009 (ip), vehicle: saline",100 % of control
same,T/C,"endpoint: median survival time, dose: 12.5 mg/kg/injection, schedule: Q01DX009 (ip), vehicle: suspension in saline",112 % of control
N#CC(/C=C/c1ccccc1)Nc1ccccc1CO (configuration not stated),T/C,[3],97 % of control
same,T/C,[4],105 % of control
same,T/C,[5],117 % of control
CC(=O)Nn1cnc2c(SCc3ccccc3)ncnc21,T/C,"endpoint: mean survival time, dose: 177.0 mg/kg/injection, schedule: Q01DX001 (ip), vehicle: saline",95 % of control
same,T/C,"endpoint: mean survival time, dose: 266.0 mg/kg/injection, schedule: Q01DX001 (ip), vehicle: saline",95 % of control
same,T/C,[7],97 % of control
same,T/C,"endpoint: mean survival time, dose: 600.0 mg/kg/injection, schedule: Q01DX001 (ip), vehicle: saline",96 % of control
NP(=O)(OCCCCOCc1ccccc1)N(CCCl)CCCl (configuration not stated),T/C,"endpoint: mean survival time, dose: 25.0 mg/kg/injection, schedule: Q01DX001 (ip), vehicle: other",98 % of control
same,T/C,"endpoint: mean survival time, dose: 50.0 mg/kg/injection, schedule: Q01DX001 (ip), vehicle: other",101 % of control
same,T/C,"endpoint: mean survival time, dose: 100.0 mg/kg/injection, schedule: Q01DX001 (ip), vehicle: other",101 % of control
same,T/C,"endpoint: mean survival time, dose: 200.0 mg/kg/injection, schedule: Q01DX001 (ip), vehicle: other",90 % of control
same,T/C,"endpoint: mean survival time, dose: 400.0 mg/kg/injection, schedule: Q01DX001 (ip), vehicle: other",95 % of control
COP1(=O)OCC(C(C)(C)C)CO1 (configuration not stated),T/C,"endpoint: mean survival time, dose: 12.5 mg/kg/injection, schedule: Q04DX002 (ip), vehicle: saline",103 % of control
same,T/C,[6],88 % of control
CN(C)C=Nc1ccc(C#N)cc1,T/C,"endpoint: mean survival time, dose: 50.0 mg/kg/injection, schedule: Q01DX001 (ip), vehicle: saline",97 % of control
same,T/C,[1],97 % of control
BrCC(Br)c1ccccc1 (configuration not stated),T/C,[3],100 % of control
same,T/C,[4],100 % of control
same,T/C,[5],96 % of control
CCCCNC(C)C1(O)Cc2c(O)c3c(c(O)c2C(OC2CC(N)C(O)C(C)O2)C1)C(=O)c1c(OC)cccc1C3=O (configuration not stated),T/C,"endpoint: mean survival time, dose: 10.0 mg/kg/injection, schedule: Q01DX009 (ip), vehicle: water",121 % of control
same,T/C,"endpoint: mean survival time, dose: 160.0 mg/kg/injection, schedule: Q01DX009 (ip), vehicle: water",119 % of control
C#CCOC(=O)Nc1ccccc1Cl,T/C,"endpoint: mean survival time, dose: 100.0 mg/kg/injection, schedule: Q04DX003 (ip), vehicle: Klucel (hydroxypropylcellulose) (HPC)",93 % of control
same,T/C,"endpoint: mean survival time, dose: 200.0 mg/kg/injection, schedule: Q04DX003 (ip), vehicle: Klucel (hydroxypropylcellulose) (HPC)",105 % of control
same,T/C,"endpoint: mean survival time, dose: 400.0 mg/kg/injection, schedule: Q04DX003 (ip), vehicle: Klucel (hydroxypropylcellulose) (HPC)",98 % of control
